Laboratory results taken from patent publication US20090286806A1, “ISOXAZOLE DERIVATIVES AS CALCIUM CHANNEL BLOCKERS” (priority 2006, published 2009).
Read-outs that look alike come from different tables or passages of the source.

How the values were obtained:
[1] = target: T1, rat brain N-type calcium channel subunits (α1B+α2δ+β1b cDNA subunits) (Rattus norvegicus, UniProt Q02294); experiment: N-type calcium channel block, whole cell patch clamp in transfected HEK 293 cells; type: cell-based; settings: holding potential −80 mV to +10 mV
T1 construct: expressed in transfected cells; host or cells: HEK 293
T1 sequence (Q02294 whole entry): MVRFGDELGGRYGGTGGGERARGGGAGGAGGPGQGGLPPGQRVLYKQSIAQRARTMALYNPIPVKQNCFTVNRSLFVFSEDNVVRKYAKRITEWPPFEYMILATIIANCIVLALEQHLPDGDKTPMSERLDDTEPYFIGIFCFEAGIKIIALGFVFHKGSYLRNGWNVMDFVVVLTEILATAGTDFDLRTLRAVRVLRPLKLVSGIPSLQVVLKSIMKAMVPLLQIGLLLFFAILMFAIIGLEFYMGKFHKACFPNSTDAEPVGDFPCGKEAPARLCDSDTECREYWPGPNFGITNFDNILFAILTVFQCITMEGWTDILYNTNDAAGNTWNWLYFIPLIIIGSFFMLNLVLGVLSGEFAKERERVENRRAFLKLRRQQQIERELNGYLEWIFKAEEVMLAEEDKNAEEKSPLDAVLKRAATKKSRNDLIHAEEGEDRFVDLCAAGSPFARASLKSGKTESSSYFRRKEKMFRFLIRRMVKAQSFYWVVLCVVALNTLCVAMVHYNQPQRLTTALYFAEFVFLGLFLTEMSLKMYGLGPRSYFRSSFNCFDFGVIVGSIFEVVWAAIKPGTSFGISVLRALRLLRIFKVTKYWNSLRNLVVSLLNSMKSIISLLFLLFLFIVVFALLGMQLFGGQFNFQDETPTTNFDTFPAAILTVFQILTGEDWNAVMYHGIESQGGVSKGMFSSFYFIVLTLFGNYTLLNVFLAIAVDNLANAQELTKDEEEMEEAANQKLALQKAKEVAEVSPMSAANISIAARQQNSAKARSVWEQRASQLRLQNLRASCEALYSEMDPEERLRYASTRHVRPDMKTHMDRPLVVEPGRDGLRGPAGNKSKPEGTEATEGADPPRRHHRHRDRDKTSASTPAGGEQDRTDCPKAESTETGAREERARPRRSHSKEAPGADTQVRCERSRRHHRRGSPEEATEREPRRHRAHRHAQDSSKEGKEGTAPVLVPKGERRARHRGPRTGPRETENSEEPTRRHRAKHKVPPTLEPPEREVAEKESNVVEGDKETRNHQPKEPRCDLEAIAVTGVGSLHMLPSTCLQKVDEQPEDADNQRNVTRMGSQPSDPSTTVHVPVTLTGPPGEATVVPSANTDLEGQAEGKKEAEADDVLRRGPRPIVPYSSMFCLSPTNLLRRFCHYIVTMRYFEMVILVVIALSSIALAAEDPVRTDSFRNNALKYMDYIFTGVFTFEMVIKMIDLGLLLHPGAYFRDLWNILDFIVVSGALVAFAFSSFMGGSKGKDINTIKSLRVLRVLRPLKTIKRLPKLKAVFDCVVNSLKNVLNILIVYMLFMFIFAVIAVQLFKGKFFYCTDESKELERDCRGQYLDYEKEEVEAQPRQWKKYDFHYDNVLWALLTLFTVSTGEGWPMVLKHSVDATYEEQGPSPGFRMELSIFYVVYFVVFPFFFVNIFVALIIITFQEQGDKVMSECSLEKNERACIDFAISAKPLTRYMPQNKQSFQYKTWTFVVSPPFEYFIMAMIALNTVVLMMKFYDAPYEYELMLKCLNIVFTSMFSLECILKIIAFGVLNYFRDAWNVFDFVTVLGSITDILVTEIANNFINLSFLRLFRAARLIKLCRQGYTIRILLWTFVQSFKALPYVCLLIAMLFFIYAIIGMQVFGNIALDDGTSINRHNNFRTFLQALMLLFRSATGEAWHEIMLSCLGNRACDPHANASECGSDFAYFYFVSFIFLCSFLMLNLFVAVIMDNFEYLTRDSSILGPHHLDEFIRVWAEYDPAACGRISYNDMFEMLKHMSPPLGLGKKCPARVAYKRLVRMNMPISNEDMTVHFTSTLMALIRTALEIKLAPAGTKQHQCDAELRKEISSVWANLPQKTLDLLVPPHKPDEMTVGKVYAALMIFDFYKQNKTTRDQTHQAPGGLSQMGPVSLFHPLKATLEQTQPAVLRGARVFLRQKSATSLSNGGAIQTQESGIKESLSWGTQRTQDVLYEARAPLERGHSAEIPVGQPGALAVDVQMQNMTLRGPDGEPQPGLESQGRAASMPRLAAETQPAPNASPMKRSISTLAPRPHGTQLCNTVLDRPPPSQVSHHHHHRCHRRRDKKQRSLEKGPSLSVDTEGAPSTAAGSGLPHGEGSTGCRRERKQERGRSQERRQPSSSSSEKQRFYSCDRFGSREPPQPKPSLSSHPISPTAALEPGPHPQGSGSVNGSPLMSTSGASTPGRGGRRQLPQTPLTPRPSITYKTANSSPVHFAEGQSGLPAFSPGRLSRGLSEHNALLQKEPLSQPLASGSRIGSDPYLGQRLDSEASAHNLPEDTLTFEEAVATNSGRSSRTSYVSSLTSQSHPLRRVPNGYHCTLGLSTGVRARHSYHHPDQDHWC
Protocol: N-type calcium channel blocking activity was assayed in human embryonic kidney cells, HEK 293, stably transfected with the rat brain N-type calcium channel subunits (α1B+α2δ+β1b cDNA subunits). Alternatively, N-type calcium channels (α1B+α2δ+β1b cDNA subunits), L-type channels (α1C+α2δ+β1b cDNA subunits) and P/Q-type channels (α1A+α2δ+β1b cDNA subunits) were transiently expressed in HEK 293 cells. Briefly, cells were cultured in Dulbecco's modified eagle medium (DMEM) supplemented with 10% fetal bovine serum, 200 U/ml penicillin and 0.2 mg/ml streptomycin at 37° C. with 5% CO2. At 85% confluency cells were split with 0.25% trypsin/1 mM EDTA and plated at 10% confluency on glass coverslips. At 12 hours the medium was replaced and the cells transiently transfected using a standard calcium phosphate protocol and the appropriate calcium channel cDNA's. Fresh DMEM was supplied and the cells transferred to 28° C./5% CO2. Cells were incubated for 1 to 2 days prior to whole cell recording.
Whole cell patch clamp experiments were performed using an Axopatch 200B amplifier (Axon Instruments, Burlingame, Calif.) linked to a personal computer equipped with pCLAMP software. The external and internal recording solutions contained, respectively, 5 mM BaCl2, 10 mM MgCl2, 10 mM HEPES, 40 mM TEACl, 10 mM glucose, 87.5 mM CsCl (pH 7.2) and 108 mM CsMS, 4 mM MgCl2, 9 mM EGTA, 9 mM HEPES (pH 7.2). Currents were typically elicited from a holding potential of −80 mV to +10 mV using Clampex software (Axon Instruments). Typically, currents were first elicited with low frequency stimulation (0.067 Hz) and allowed to stabilize prior to application of the compounds. The compounds were then applied during the low frequency pulse trains for two to three minutes to assess tonic block, and subsequently the pulse frequency was increased to 0.2 Hz to assess frequency dependent block. Data were analyzed using Clampfit (Axon Instruments) and SigmaPlot 4.0 (Jandel Scientific).

[2] = target: T2, human α1G T-type channels (Homo sapiens, UniProt O43497); experiment: T-type calcium channel block, whole-cell patch clamp in HEK cell lines; type: cell-based; settings: HEK cells
T2 construct: expressed in transfected cells; host or cells: HEK cell lines
T2 sequence (O43497 whole entry): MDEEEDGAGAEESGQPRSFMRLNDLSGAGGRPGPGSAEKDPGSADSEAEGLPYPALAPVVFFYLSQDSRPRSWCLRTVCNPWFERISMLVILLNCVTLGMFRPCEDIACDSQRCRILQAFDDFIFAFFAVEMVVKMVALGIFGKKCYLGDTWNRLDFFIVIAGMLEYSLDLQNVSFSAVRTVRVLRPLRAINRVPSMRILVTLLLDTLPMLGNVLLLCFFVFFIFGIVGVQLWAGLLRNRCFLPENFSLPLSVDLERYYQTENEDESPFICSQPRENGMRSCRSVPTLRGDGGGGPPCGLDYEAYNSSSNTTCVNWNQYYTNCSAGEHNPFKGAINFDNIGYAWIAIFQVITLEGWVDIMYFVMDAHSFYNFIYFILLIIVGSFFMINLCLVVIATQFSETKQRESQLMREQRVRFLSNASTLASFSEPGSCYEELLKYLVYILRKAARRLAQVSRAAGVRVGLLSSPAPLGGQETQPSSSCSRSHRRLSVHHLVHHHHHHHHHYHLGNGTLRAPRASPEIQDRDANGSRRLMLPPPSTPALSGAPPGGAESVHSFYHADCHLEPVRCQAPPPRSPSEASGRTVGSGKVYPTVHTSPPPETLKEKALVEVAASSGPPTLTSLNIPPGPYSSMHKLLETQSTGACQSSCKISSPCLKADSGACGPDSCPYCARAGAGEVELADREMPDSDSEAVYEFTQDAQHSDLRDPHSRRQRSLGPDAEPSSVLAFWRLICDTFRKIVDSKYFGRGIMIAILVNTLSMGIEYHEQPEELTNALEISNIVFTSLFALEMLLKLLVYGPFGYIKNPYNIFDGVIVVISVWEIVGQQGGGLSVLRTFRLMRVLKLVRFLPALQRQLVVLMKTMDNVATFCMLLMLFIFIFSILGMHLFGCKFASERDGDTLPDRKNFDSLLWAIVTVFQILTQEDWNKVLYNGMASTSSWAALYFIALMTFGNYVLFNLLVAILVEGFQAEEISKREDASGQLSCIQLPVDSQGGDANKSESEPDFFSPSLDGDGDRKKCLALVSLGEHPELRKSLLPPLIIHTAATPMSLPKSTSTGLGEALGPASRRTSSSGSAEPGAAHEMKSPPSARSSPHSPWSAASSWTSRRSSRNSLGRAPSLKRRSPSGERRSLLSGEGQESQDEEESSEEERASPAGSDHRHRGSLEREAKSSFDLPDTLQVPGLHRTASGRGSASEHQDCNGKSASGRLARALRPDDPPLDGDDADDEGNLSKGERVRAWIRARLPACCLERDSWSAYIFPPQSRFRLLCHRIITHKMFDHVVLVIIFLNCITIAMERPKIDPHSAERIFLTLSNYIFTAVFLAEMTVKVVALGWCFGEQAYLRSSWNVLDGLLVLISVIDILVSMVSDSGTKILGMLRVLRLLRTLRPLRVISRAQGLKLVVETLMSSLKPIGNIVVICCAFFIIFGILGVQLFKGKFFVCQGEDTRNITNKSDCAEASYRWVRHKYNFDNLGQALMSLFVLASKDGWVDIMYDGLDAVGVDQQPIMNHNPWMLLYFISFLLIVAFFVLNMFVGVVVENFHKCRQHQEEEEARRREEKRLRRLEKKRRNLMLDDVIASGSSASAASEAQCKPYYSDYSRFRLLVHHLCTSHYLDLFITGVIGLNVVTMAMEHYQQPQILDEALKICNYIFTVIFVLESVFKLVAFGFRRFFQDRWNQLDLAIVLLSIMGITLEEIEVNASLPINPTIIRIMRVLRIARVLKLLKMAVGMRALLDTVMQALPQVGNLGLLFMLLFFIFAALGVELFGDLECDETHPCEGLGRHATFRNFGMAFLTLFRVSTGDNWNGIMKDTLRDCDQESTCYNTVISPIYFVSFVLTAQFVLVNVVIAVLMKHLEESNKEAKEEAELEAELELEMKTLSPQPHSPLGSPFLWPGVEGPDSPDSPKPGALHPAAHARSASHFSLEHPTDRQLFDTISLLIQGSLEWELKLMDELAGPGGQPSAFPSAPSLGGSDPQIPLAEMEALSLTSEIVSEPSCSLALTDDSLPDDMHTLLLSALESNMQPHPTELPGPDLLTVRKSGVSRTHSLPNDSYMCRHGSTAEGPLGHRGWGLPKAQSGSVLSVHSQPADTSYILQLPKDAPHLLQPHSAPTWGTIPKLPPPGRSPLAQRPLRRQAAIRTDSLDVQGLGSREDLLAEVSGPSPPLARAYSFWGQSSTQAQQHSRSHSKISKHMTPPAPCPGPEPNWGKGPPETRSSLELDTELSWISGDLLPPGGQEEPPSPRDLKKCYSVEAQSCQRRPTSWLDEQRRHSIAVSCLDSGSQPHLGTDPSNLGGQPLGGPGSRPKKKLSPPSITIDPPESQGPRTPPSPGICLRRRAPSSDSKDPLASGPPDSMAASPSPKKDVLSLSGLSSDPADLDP
Protocol: Standard patch-clamp techniques were employed to identify blockers of T-type currents. Briefly, previously described HEK cell lines stably expressing human α1G T-type channels were used for all the recordings (passage #: 4-20, 37° C., 5% CO2). To obtain T-type currents, plastic dishes containing semi-confluent cells were positioned on the stage of a ZEISS AXIOVERT S100 microscope after replacing the culture medium with external solution (see below). Whole-cell patches were obtained using pipettes (borosilicate glass with filament, O.D.: 1.5 mm, I.D.: 0.86 mm, 10 cm length), fabricated on a SUTTER P-97 puller with resistance values of ˜5 M• (see below for internal solution).
In the non-inactivating protocol, the holding potential is set at −110 mV and with a pre-pulse at −100 mV for 1 second prior to the test pulse at −40 mV for 50 ms. […]
Test compounds were dissolved in external solution, 0.1-0.01% DMSO. After ˜10 min rest, they were applied by gravity close to the cell using a WPI microfil tubing. The “non-inactivated” pre-pulse was used to examine the resting block of a compound. The “inactivated” protocol was employed to study voltage-dependent block. However, the initial data shown below were mainly obtained using the non-inactivated protocol only. IC50 values are shown for various compounds of the invention in Table 5.

[3] = system: T-type over L-type channels; settings: literature statement (Heady et al. 2001); cited from earlier work
[4] = low frequency stimulation 0.067 Hz (tonic block), read-out: IC50 @ 0.067 Hz
[5] = pulse frequency 0.2 Hz (frequency dependent block), read-out: IC50 @ 0.2 Hz
[6] = inactivation protocol (voltage-dependent block), read-out: IC50 @ −80 mV
[7] = non-inactivating protocol, pre-pulse −100 mV (resting block), read-out: IC50 @ −100 mV

Row | SMILES | IC50 [1, 4] | IC50 [1, 5] | IC50 [2, 6] | IC50 [2, 7] | selective for T-type over L-type channels [3]
1 | O=C(c1cc(-c2ccccc2)no1)N1CCN(C(c2ccccc2)c2ccccc2)CC1 [Compound 1, (4-benzhydrylpiperazin-1-yl)(3-phenylisoxazol-5-yl)methanone] | 0.65 µM | 0.29 µM | 1.9 µM | > 10 µM | 
2 | c1ccc(-c2cc(CN3CCN(C(c4ccccc4)c4ccccc4)CC3)on2)cc1 [Compound 2, 5-((4-benzhydrylpiperazin-1-yl)methyl)-3-phenylisoxazole] | 1.7 µM | 0.67 µM | 0.35 µM | 1.6 µM | 
3 | O=C(c1cc(-c2ccccc2F)no1)N1CCN(C(c2ccccc2)c2ccccc2)CC1 [Compound 3, (4-benzhydrylpiperazin-1-yl)(3-(2-fluorophenyl)isoxazol-5-yl)methanone] | 0.8 µM | 0.37 µM |  |  | 
4 | COc1ccccc1-c1cc(C(=O)N2CCN(C(c3ccccc3)c3ccccc3)CC2)on1 [Compound 4, (4-benzhydrylpiperazin-1-yl)(3-(2-methoxyphenyl)isoxazol-5-yl)methanone] | 2.99 µM | 1.49 µM |  |  | 
5 | COc1ccccc1-c1cc(CN2CCN(C(c3ccccc3)c3ccccc3)CC2)on1 [Compound 5, 5-((4-benzhydry1piperazin-1-yl)methyl)-3-(2-methoxyphenyl)isoxazole] | 0.68 µM | 0.34 µM |  |  | 
6 | Fc1ccccc1-c1cc(CN2CCN(C(c3ccccc3)c3ccccc3)CC2)on1 [Compound 6, 5-((4-benzhydry1piperazin-1-yl)methyl)-3-(2-fluorophenyl)isoxazole] | 3.4 µM | 1.1 µM |  |  | 
7 | O=C(CC(c1ccccc1)c1ccccc1)N1CCN(Cc2cc(-c3ccccc3F)no2)CC1 [Compound 7, 1-(4-((3-(2-fluorophenyl)isoxazol-5-yl)methyl)piperazin-1-yl)-3,3-diphenylpropan-1-one] | 0.52 µM | 0.33 µM |  |  | 
8 | COc1ccccc1-c1cc(CN2CCN(C(=O)CC(c3ccccc3)c3ccccc3)CC2)on1 [Compound 8, 1-(4-((3-(2-methoxyphenyl)isoxazol-5-yl)methyl)piperazin-1-yl)-3,3-diphenylpropan-1-one] | 0.6 µM | 0.29 µM |  |  | 
9 | O=C(CC(c1ccccc1)c1ccccc1)N1CCN(Cc2cc(-c3ccccc3)no2)CC1 [Compound 9, 3,3-diphenyl-1-(4-((3-phenylisoxazol-5-yl)methyl)piperazin-1-yl)propan-1-one] | 2.8 µM | 1.2 µM | 1.7 µM | > 10 µM | 
10 | Cc1ccc(C(c2ccccc2)N2CCN(Cc3cc(-c4ccccc4)no3)CC2)c(C)c1 (stereo not drawn) [Compound 10, 5-((4-((2,4-dimethylphenyl)(phenyl)methyl)piperazin-1-yl)methyl)-3-phenylisoxazole] | 1.07 µM | 0.4 µM | 2.18 µM | 9.21 µM | 
11 | Cc1ccc(C(c2ccccc2)N2CCN(C(=O)c3cc(-c4ccccc4F)no3)CC2)c(C)c1 (stereo not drawn) [Compound 11, (4-((2,4-dimethylphenyl)(phenyl)methyl)piperazin-1-yl)(3-(2-fluorophenyl)isoxazol-5-yl)methanone] | 2.18 µM | 1.13 µM | 2.77 µM | 14.8 µM | 
12 | Cc1ccc(C(c2ccccc2)N2CCN(Cc3cc(-c4ccccc4F)no3)CC2)c(C)c1 (stereo not drawn) [Compound 12, 5-((4-((2,4-dimethylphenyl)(phenyl)methyl)piperazin-1-yl)methyl)-3-(2-fluorophenyl)isoxazole] | 0.95 µM | 0.57 µM | 0.83 µM | 3.69 µM | 
13 | Clc1ccc(C(c2ccccc2)N2CCN(Cc3cc(-c4ccccc4)no3)CC2)c(Cl)c1 (stereo not drawn) [Compound 14, 5-((4-((2,4-dichlorophenyl)(phenyl)methyl)piperazin-1-yl)methyl)-3-phenylisoxazole] | 22.2 µM | 2.24 µM | 5.53 µM | > 16.5 µM | 
14 | O=C(c1cc(-c2ccccc2F)no1)N1CCN(C(c2ccccc2)c2ccc(Cl)cc2Cl)CC1 (stereo not drawn) [Compound 15, (4-((2,4-dichlorophenyl)(phenyl)methyl)piperazin-1-yl)(3-(2-fluorophenyl)isoxazol-5-yl)methanone] | 6.47 µM | 3.38 µM |  |  | 
15 | Fc1ccccc1-c1cc(CN2CCN(C(c3ccccc3)c3ccc(Cl)cc3Cl)CC2)on1 (stereo not drawn) [Compound 16, 5-((4-((2,4-dichlorophenyl)(phenyl)methyl)piperazin-1-yl)methyl)-3-(2-fluorophenyl) isoxazole] | 3.15 µM | 1.96 µM |  |  | 
16 | COCC(=O)O[C@]1(CCN(C)CCCc2nc3ccccc3[nH]2)CCc2cc(F)ccc2[C@@H]1C(C)C [Mibefradil] |  |  |  |  | 10-30 fold
